Experimental data taken from BindingDB's records for doi:10.1016/j.bmcl.2013.11.055 (Shanghai Hengrui Pharmaceutical, 2013).

What was measured:
[1] = Antagonist activity at P2Y12 receptor in human platelet-rich plasma assessed as inhibition of ADP-induced platelet aggregation incubated for 5 mins prior to ADP-challenge by light transmission-based assay
[2] = Antagonist activity at P2Y12 receptor in rat platelet-rich plasma assessed as inhibition of ADP-induced platelet aggregation incubated for 5 mins prior to ADP-challenge by light transmission-based assay

| IC50 [1] | IC50 [2] | Structure (SMILES) |
| --- | --- | --- |
| 1.97 µM | 0.85 µM | CCCSc1nc(N[C@@H]2C[C@H]2c2ccc(F)c(F)c2)c2nnn([C@@H]3C=C[C@@H](O)[C@H]3O)c2n1 |
| 0.35 µM | 0.48 µM | CCCSc1nc(N[C@@H]2C[C@H]2c2ccc(F)c(F)c2)c2nnn([C@H]3[C@H](O)[C@H](O)[C@@H](OCCO)[C@H]3F)c2n1 |
|  | 0.148 µM | CCCSc1nc(N[C@@H]2C[C@H]2c2ccc(F)c(F)c2)c2nnn([C@@H]3C[C@H](OCC(O)CO)[C@@H](O)[C@H]3O)c2n1 (stereo not given in full) |
| 0.22 µM | 0.29 µM | CCCSc1nc(N[C@@H]2C[C@H]2c2ccc(F)c(F)c2)c2nnn([C@H]3[C@H](O)[C@H](O)[C@@H](O)[C@H]3F)c2n1 |
| 1.73 µM | 1.25 µM | CCCSc1nc(N[C@@H]2C[C@H]2c2ccc(F)c(F)c2)c2nnn(C3[C@H](O)[C@H](O)[C@@H](O)[C@H]3O)c2n1 (stereo not given in full) |
| 16.3 µM | 0.65 µM | CCCSc1nc(N[C@@H]2C[C@H]2c2ccc(F)c(F)c2)c2nnn([C@H]3[C@H](O)[C@H](O)[C@@H](O)[C@@H]3O)c2n1 |
| 0.28 µM | 0.16 µM | CCCSc1nc(N[C@@H]2C[C@H]2c2ccc(Cl)s2)c2nnn([C@@H]3C[C@H](OCCO)[C@@H](O)[C@H]3O)c2n1 |
| 4.82 µM | 0.41 µM | CCCSc1nc(N[C@@H]2C[C@H]2c2ccc(F)c(F)c2)c2nnn([C@@H]3C[C@H](OCC(F)CO)[C@@H](O)[C@H]3O)c2n1 (stereo not given in full) |
|  | 31.3 µM | CCCSc1nc(N[C@@H]2C[C@H]2c2ccc(F)c(F)c2)c2nnn([C@@H]3C[C@H](OCC(F)F)[C@@H](O)[C@H]3O)c2n1 |
| 6.35 µM |  | CCCSc1nc(N[C@@H]2C[C@H]2c2ccc(F)c(F)c2)c2nnn([C@H]3[C@H](O)[C@H](O)[C@@H](OCCO)[C@@H]3F)c2n1 |
|  | 1.52 µM | CCCSc1nc(N[C@@H]2C[C@H]2c2cccnc2)c2nnn([C@@H]3C[C@H](OCCO)[C@@H](O)[C@H]3O)c2n1 |
| 0.5 µM |  | CCCSc1nc(N[C@@H]2C[C@H]2c2ccc(F)c(F)c2)c2nnn([C@@H]3C[C@H](OCCO)[C@@H](O)[C@H]3O)c2n1 [AR-C126532XX] |
| 0.33 µM | 0.11 µM | CCCSc1nc(N[C@@H]2C[C@H]2c2ccc(F)c(F)c2)c2nnn([C@@H]3C[C@H](F)[C@@H](O)[C@H]3O)c2n1 |
|  | 1.81 µM | CCCSc1nc(N[C@@H]2C[C@H]2c2scnc2C)c2nnn([C@@H]3C[C@H](OCCO)[C@@H](O)[C@H]3O)c2n1 |
| 11.3 µM | 1.38 µM | CCCSc1nc(N[C@@H]2C[C@H]2c2ccc(F)c(F)c2)c2nnn([C@H]3[C@H](O)[C@H](O)[C@@H](OCCO)[C@@H]3O)c2n1 |
| 1.67 µM |  | CCCSc1nc(N[C@@H]2C[C@H]2c2ccc(F)c(F)c2)c2nnn([C@H]3[C@H](O)[C@H](O)[C@@H](O)[C@@H]3F)c2n1 |
